# Assay results as given in paper PMC9418603 (JID Innovations, 2022).
# “Also recorded” adds a separate entry of the source. Read-outs that look alike come from different tables or passages of the source. Where no end group is shown, it is not given here. The star is where a group is joined. Biotin = O=C1N[C@H]2[C@H](CS[C@H]2CCCCC(=O)*)N1
# Assays:
# TGM2 [1] = conditions: cited from earlier work
# [2] = system: LPS-treated dorsal skin of mice; design: species or system Female C57BL/6J mice; conditions: mouse, in vivo
# [3] = system: sialic acid‒specific plant lectins; conditions: cited from earlier work
# [4] = system: recombinant human siglecs; conditions: cited from earlier work
# [5] = system: N-acetylgalactosamine‒specific lectins; conditions: cited from earlier work
# TGM2 [6] = molecular target: TGM2 (Cavia cutleri, UniProt P08587); type: biochemical, guinea pig liver
# Chain of TGM2 (Cavia cutleri, UniProt P08587) (P08587 whole entry): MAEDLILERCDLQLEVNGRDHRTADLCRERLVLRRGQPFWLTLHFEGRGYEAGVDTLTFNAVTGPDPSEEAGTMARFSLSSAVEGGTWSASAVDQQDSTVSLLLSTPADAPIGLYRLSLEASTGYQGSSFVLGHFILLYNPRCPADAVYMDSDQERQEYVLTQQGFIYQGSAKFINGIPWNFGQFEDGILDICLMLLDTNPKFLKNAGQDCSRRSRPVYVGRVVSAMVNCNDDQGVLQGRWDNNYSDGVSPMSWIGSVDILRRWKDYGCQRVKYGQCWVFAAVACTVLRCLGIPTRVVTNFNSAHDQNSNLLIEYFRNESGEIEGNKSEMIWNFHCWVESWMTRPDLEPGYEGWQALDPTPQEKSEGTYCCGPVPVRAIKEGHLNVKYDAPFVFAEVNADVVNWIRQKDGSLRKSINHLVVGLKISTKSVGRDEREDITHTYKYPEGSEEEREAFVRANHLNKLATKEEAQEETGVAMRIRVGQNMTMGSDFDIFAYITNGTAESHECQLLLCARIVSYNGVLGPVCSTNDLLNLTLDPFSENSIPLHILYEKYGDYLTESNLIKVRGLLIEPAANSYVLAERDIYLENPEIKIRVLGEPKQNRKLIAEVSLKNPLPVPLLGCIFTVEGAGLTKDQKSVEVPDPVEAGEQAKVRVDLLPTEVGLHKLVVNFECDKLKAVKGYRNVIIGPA
# [7] = type: physicochemical; conditions: pH 5
# human CLEC10A (CD301) = conditions: cited from earlier work
# TGM2 [8] = conditions: cited from earlier work; remark: listed apart in the source
compound,measurement,setting,value
NCCCCNCCCN [spermidine],acceptor amine (second substrate) activity,TGM2 [1],active second substrates
[(NPSHPLSG-GGGS)2K]2K-NH2 [svH1C],"effectiveness, topical (general statement)",[2],not effective when applied topically
same,epidermal disruption / integrity of skin surface,[2],not when applied topically
same,epidermal morphology / thickness,[2],ineffective in restoring normal epidermal morphology
same,"epidermal disruption / recovery, lesions",[2]; sc,effective when injected subcutaneously; also recorded: lesions were absent
same,epidermal thickness,[2]; sc,most areas of the skin contained a thickened epidermis
same,neutrophils in dermis,[2]; sc,abundant neutrophils in the dermis
same,binding to sialic acid‒specific plant lectins,[3],binds to sialic acid‒specific plant lectins
same,binding to recombinant human siglecs,[4],recombinant human siglecs
"[Ca+2] [Ca^2+, calcium ion]","activation constant, KA",TGM2 [1],6.9 mM
[(VQATQSNQHTPR-GGGS)2K2]K-NH2 [svL4],epidermal disruption / integrity of skin surface,[2],"restored the integrity of the skin surface, with no epidermal disruptions"
same,epidermal morphology / thickness,[2],uniformly of normal thickness; also recorded: normal morphology with thin epidermis; also recorded: the epidermis had returned to a normal morphology
same,mean epidermal thickness,[2],16.1 μm
same,neutrophils (Ly6G^+) in dermis,[2],nearly free of neutrophils; also recorded: essentially free of neutrophils; also recorded: neutrophils were absent
same,neutrophils in the dermis (summary statement),[2],loss of neutrophils in the dermis
same,repair of structural disruption of the epidermis (general statement),[2],repair of areas of structural disruption of the epidermis; also recorded: structural disruption of the epidermis was repaired
same,thickness of the epidermis (summary statement),[2],reduction of the thickness of the epidermis
same,density of dermal collagen,[2]; sc,an increased density of dermal collagen was noted
same,"epidermal disruption / recovery, lesions",[2]; sc,no recovery occurred
same,epidermal thickness,[2]; sc,did not reduce epidermal thickness
same,binding to other N-acetylgalactosamine‒specific lectins,[5],"bind specifically to human CLEC10A ([Hoober, 2020]) and other N-acetylgalactosamine‒specific lectins"
same,TGM2 functional substrate / cross-linking to lysine,TGM2 [6],the enzyme can use glutamine from the arms; also recorded: functional substrates of transglutaminase (TGM) 2
same,TGM2 substrate activity with aged enzyme,TGM2 [6],lost over half of the activity
same,Km,TGM2 [6]; pH 7.5,7 µM
same,positive charge,[7],12
same,binding to human CLEC10A,human CLEC10A (CD301),binds with high specificity and avidity to recombinant and native human CLEC10A (CD301); also recorded: bind specifically to human CLEC10A
carbobenzoxy-L-glytaminylglycine,Km,TGM2 [1],22000 µM
C[C@@H]1C[C@H]2[C@@H]3CCC4=CC(=O)C=C[C@]4(C)[C@@]3(F)[C@@H](O)C[C@]2(C)[C@@]1(O)C(=O)CO [dexamethasone],induction of TGM2 expression,TGM2 [8],Expression of TGM2 is induced
Biotin-TVQQEL,Km,TGM2 [1]; read-out: Km of standard peptide,1 µM
NCCCCN [putrescine],acceptor amine (second substrate) activity,TGM2 [1],active second substrates
[(NQHTPR-GGGS)2K2]K-NH2 [sv6D],mean epidermal thickness,[2],17.1 μm
same,repair of structural disruption of the epidermis (general statement),[2],structural disruption of the epidermis was repaired
same,binding to other N-acetylgalactosamine‒specific lectins,[5],"bind specifically to human CLEC10A ([Hoober, 2020]) and other N-acetylgalactosamine‒specific lectins"
same,Km relative to svL4,TGM2 [6],higher Km values
same,TGM2 functional substrate / cross-linking to lysine,TGM2 [6],the enzyme can use glutamine from the arms; also recorded: functional substrates of transglutaminase (TGM) 2
same,TGM2 substrate activity,TGM2 [6],poor substrates in vitro
same,TGM2 substrate activity with aged enzyme,TGM2 [6],gained the ability to use sv6D
same,positive charge,[7],12
same,binding to human CLEC10A,human CLEC10A (CD301),binds with high specificity and avidity to recombinant and native human CLEC10A (CD301); also recorded: bind specifically to human CLEC10A
[(VQATQS-GGGS)2K2]K-NH2 [svC1],mean epidermal thickness,[2],15.5 μm
same,reduction of epidermal thickness,[2],active in reducing the thickness of the epidermis
same,Km relative to svL4,TGM2 [6],higher Km values
same,TGM2 functional substrate / cross-linking to lysine,TGM2 [6],the enzyme can use glutamine from the arms
same,TGM2 substrate activity,TGM2 [6],poor substrates in vitro
same,TGM2 substrate activity with aged enzyme,TGM2 [6],"to a lesser extent, svC1 as substrates"
same,binding to human CLEC10A,human CLEC10A (CD301),does not bind to CLEC10A
